Measured values published in US20240246918A1, “COMPOUNDS AND COMPOSITIONS AS EIF4E INHIBITORS AND THE USES THEREOF” (Ribometrix, Inc., priority 2022, published 2024).
Read-outs that look alike come from different tables or passages of the source.

Columns and labels:
[1] = molecular target: T1, human eIF4E protein (Homo sapiens, UniProt P06730); test: Biochemical competitive binding assay (TR-FRET competition, EDA-m7GDP-ATTO-647N probe); conditions: read-out: hEIF4E TR-FRET IC50
T1 construct: purchased Novus NBP-45314
T1 sequence (P06730 whole entry): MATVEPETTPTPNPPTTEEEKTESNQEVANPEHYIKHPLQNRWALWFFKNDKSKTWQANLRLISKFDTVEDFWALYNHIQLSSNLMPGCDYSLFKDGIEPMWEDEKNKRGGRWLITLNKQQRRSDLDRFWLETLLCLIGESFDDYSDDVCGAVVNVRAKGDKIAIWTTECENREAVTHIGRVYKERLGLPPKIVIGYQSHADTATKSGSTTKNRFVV
Summary of the method: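 IC50 values come from 4-parameter fits of the normalized 665/620 nm TR-FRET ratio. Compound was first incubated 15 min with 4 nM recombinant His-eIF4E bound to 2.5 nM Eu-anti-His antibody, then 15 min with 5 nM m7GDP-ATTO-647N tracer, in pH 7.5 HEPES buffer with 100 mM KCl, Tween-20 and BSA.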

[2] = tested on: cap-dependent translation in Flp-In-293 reporter cells; test: Cellular cap-dependent translation inhibition assay (dual luciferase assay, DLA; Fluc/Rluc ratio, 24 hours); format: cell-based
[3] = tested on: COLO 205 colorectal tumor cells; test: Tumor cell viability inhibition assay (CellTiter-Glo 2.0, 72 hours); format: cell-based; conditions: COLO 205 cell viability
Summary of the method: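 IC50 derived by 4-parameter fitting after normalizing luminescence to DMSO and max-inhibition wells. Compounds tested as 11 concentrations in 4-fold steps on COLO 205 cells seeded at 1500 per well in RPMI-1640/10% FBS; ATP content measured with CellTiter-Glo 2.0 after 72 h.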

[4] = Homo sapiens, Flp-In-293, 24 h, dual luciferase assay, Flp-In-293 reporter cells, 24 hours, Fluc/Rluc ratio, read-out: DLA 205 IC50
[5] = dual luciferase assay, Flp-In-293 reporter cells, 24 hours, Fluc/Rluc ratio, read-out: DLA 205 IC50

IC50 [1] [nM]	IC50 ([3]; Homo sapiens, COLO 205, 72 h) [nM]	IC50 [3] [nM]	SMILES	IC50 [2, 4] [nM]	IC50 [2, 5] [nM]	IC50 ([2]; Homo sapiens, Flp-In-293, 24 h, read-out: DLA 205 IC50, dual luciferase assay, Flp-In-293 reporter cells, 24 hours, Fluc/Rluc ratio) [nM]	IC50 ([3]; Homo sapiens) [nM]	IC50 ([2]; read-out: DLA 205 IC50, dual luciferase assay, Flp-In-293 reporter cells, 24 hours, Fluc/Rluc ratio) [nM]
< 100	< 5000		Cc1cc(-c2cc(Cl)ccc2OCCn2c(C)nc3c(c2=O)CC(N2CCC[C@H](F)C2)CC3)c2scc(C(=O)NS(C)(=O)=O)c2n1 (single isomer, unassigned) [Compound 264]	< 1000				
< 100	5000 to 20000		Cc1cc(-c2cc(Cl)ccc2OCCn2c(C)nc3c(c2=O)CC(N(C)CC2CCNCC2)CC3)c2scc(C(=O)NS(C)(=O)=O)c2n1 (single isomer, unassigned) [Compound 289]	1000 to 5000				
< 100	< 5000		Cc1cc(-c2cc(Cl)ccc2OCCn2c(C)nc3c(c2=O)CC(N2CCC(F)(F)CC2)CC3)c2scc(C(=O)NS(C)(=O)=O)c2n1 (stereo not drawn) [Compound 52]	< 1000				
< 100		5000 to 20000	Cc1cc(-c2cc(Cl)ccc2OCCn2c(C)nc3c(c2=O)CC(N(C)C2CC2)CC3)c2scc(C(=O)NS(=O)(=O)c3ccccn3)c2n1 (single isomer, unassigned) [Compound 287]		1000 to 5000			
< 100	< 5000		Cc1cc(-c2cc(Cl)ccc2OCCn2c(C)nc3c(c2=O)CC(N(C)C2CCCC2(F)F)CC3)c2scc(C(=O)O)c2n1 (single isomer, unassigned) [Compound 300]	< 1000				
< 100	< 5000		CO[C@@H]1CCN([C@H]2CCc3nc(C)n(CCOc4ccc(Cl)cc4-c4cc(C)nc5c(C(=O)O)csc45)c(=O)c3C2)C1 (single isomer, unassigned) [Compound 43]	< 1000				
< 100	< 5000		Cc1cc(-c2cc(Cl)ccc2OCCn2c(C)nc3c(c2=O)CC(N2CCC4(COC4)C2)CC3)c2scc(C(=O)O)c2n1 (stereo not drawn) [Compound 26]	< 1000				
< 100		< 5000	Cc1cc(-c2cc(Cl)ccc2OCCn2c(C)nc3c(c2=O)CC(N2CC4COCC4C2)CC3)c2scc(C(=O)NS(C)(=O)=O)c2n1 (single isomer, unassigned) [Compound 89]		< 1000			
< 100	< 5000		Cc1nc2c(c(=O)n1CC#Cc1ccc(Cl)cc1-c1ccnc3c(C(=O)O)csc13)CC(N(C)C1CCN(CC(F)(F)F)CC1)CC2 (stereo not drawn) [Compound 275]	< 1000				
< 100	< 5000		Cc1cc(-c2cc(Cl)ccc2OCCn2c(C)nc3c(c2=O)CC(N2CC4COCC4C2)CC3)c2scc(C(=O)O)c2n1 (stereo not drawn) [Compound 19]	< 1000				
< 100		< 5000	Cc1cc(-c2cc(Cl)ccc2OCCn2c(C)nc3c(c2=O)CC(N2CCC(F)(F)CC2)CC3)c2scc(C(=O)NS(C)(=O)=O)c2n1 (single isomer, unassigned) [Compound 254]		< 1000			
500 to 5000	> 20000		Cc1nc2c(c(=O)n1CC#Cc1ccc(Cl)cc1-c1ccnc3c(C(=O)O)csc13)CC(N(C)C)CC2 (stereo not drawn) [Compound 350]	> 5000				
500 to 5000	5000 to 20000		COC(=O)c1csc2c(-c3cc(Cl)ccc3OCCn3c(C)nc4c(c3=O)CC(N(C)C3CC3)CC4)cc(C)nc12 (stereo not drawn) [Compound 358]	1000 to 5000				
< 100		< 5000	Cc1cc(-c2cc(Cl)ccc2OCCn2c(C)nc3c(c2=O)CC(N(C)Cc2ccncc2)CC3)c2scc(C(=O)O)c2n1 (single isomer, unassigned) [Compound 354]		< 1000			
< 100	< 5000		Cc1cc(-c2cc(Cl)ccc2OCCn2c(C)nc3c(c2=O)CC(N(C)C)CC3)c2scc(C(=O)NS(C)(=O)=O)c2n1 (stereo not drawn) [Compound 39, 7-[5-chloranyl-2-[2-[6-[di(methyl)amino]-2-methyl-4-oxidanylidene-5,6,7,8-tetrahydroquinazolin-3-yl]ethoxy]phenyl]-5-methyl-N-methylsulfonyl-thieno[3,2-b]pyridine-3-carboxamide; 2,2,2-tris(fluorenyl)acetic acid]	< 1000				
< 100	> 20000		Cc1cc(-c2cc(Cl)ccc2OCCn2c(C)nc3c(c2=O)CC(N(C)C)CC3)c2ccc(C(=O)O)n2n1 (stereo not drawn) [Compound 36, 4-[5-chloranyl-2-[2-[6-[di(methyl)amino]-2-methyl-4-oxidanylidene-5,6,7,8-tetrahydroquinazolin-3-yl]ethoxy]phenyl]-2-methyl-pyrrolo[1,2-b]pyridazine-7-carboxylic acid]	> 5000				
500 to 5000	5000 to 20000		Cc1cc(-c2cc(Cl)ccc2OCCn2c(C)nc3c(c2=O)CC(N(C)C2CC2)CC3)c2sccc2n1 (single isomer, unassigned) [Compound 306]		> 5000			

IC50 [1] [nM]	IC50 ([3]; Homo sapiens, COLO 205, 72 h) [nM]	IC50 [3] [nM]	SMILES	IC50 [2, 4] [nM]	IC50 [2, 5] [nM]	IC50 ([2]; Homo sapiens, Flp-In-293, 24 h, read-out: DLA 205 IC50, dual luciferase assay, Flp-In-293 reporter cells, 24 hours, Fluc/Rluc ratio) [nM]	IC50 ([3]; Homo sapiens) [nM]	IC50 ([2]; read-out: DLA 205 IC50, dual luciferase assay, Flp-In-293 reporter cells, 24 hours, Fluc/Rluc ratio) [nM]
< 100	< 5000		Cc1cc(-c2cc(Cl)ccc2OCCn2c(C)nc3c(c2=O)C[C@H](N2CC[C@@H](F)C2)CC3)c2scc(C(=O)NS(C)(=O)=O)c2n1 (single isomer, unassigned) [Compound 313]	< 1000				
100 to 500	> 20000		Cc1cc(-c2cc(Cl)ccc2OCCn2c(C)nc3c(c2=O)CC(N2CC4COCC4C2)CC3)c2sccc2n1 (stereo not drawn) [Compound 78]	1000 to 5000				
< 100	> 20000		Cc1cc(-c2cc(Cl)ccc2OCCn2c(C)nc3c(c2=O)CC(N2CCC4(CN(C)C4)C2)CC3)c2scc(C(=O)O)c2n1 (stereo not drawn) [Compound 34]	> 5000				
< 100	< 5000		Cc1nc2c(c(=O)n1CC#Cc1ccc(Cl)cc1-c1ccnc3c(C(=O)NS(C)(=O)=O)csc13)C[C@H](N1CC[C@@H](F)C1)CC2 (single isomer, unassigned) [Compound 348]	< 1000				
< 100	< 5000		Cc1cc(-c2cc(Cl)ccc2OCCn2c(C)nc3c(c2=O)CC(N(C2CCC2)C2CC2)CC3)c2scc(C(=O)O)c2n1 (stereo not drawn) [Compound 97]	< 1000				
500 to 5000		> 20000	Cc1nc2c(c(=O)n1CC#Cc1ccc(Cl)cc1-c1ccnc3c(C(=O)NS(C)(=O)=O)csc13)CC(N(C)C)CC2 (single isomer, unassigned) [Compound 273]		> 5000			
< 100	< 5000		Cc1cc(-c2cc(Cl)ccc2OCCn2c(C)nc3c(c2=O)CC(N(C)C2CC2)CC3)c2scc(C(=O)O)c2n1 (single isomer, unassigned) [Compound 335]	< 1000				
< 100	< 5000		Cc1cc(-c2cc(Cl)ccc2OCCn2c(C)nc3c(c2=O)CC(N(C)C2CC24CCC4)CC3)c2scc(C(=O)O)c2n1 (stereo not drawn) [Compound 262]	< 1000				
< 100	< 5000		Cc1cc(-c2cc(Cl)ccc2OCCn2c(C)nc3c(c2=O)CC(N(C)C2CC(F)(F)C2)CC3)c2scc(C(=O)NS(C)(=O)=O)c2n1 (single isomer, unassigned) [Compound 93]	< 1000				
500 to 5000		> 20000	Cc1cc(-c2cc(Cl)ccc2OCCn2c(C)nc3c(c2=O)CC(N2CC(F)(F)C2)CC3)c2sccc2n1 (single isomer, unassigned) [Compound 341]		> 5000			
< 100		< 5000	Cc1cc(-c2cc(Cl)ccc2OCCn2c(C)nc3c(c2=O)CC(N(C)CC2(C)COC2)CC3)c2scc(C(=O)NS(C)(=O)=O)c2n1 (single isomer, unassigned) [Compound 305]		< 1000			
< 100	< 5000		Cc1cc(-c2cc(Cl)ccc2OCCn2c(C)nc3c(c2=O)C[C@@H](N2CC[C@@H](F)C2)CC3)c2scc(C(=O)O)c2n1 (single isomer, unassigned) [Compound 329]	< 1000				
< 100	< 5000		Cc1nc2c(c(=O)n1CC#Cc1ccc(Cl)cc1-c1ccnc3c(C(=O)O)csc13)C[C@H](N1CC[C@H](F)C1)CC2 (single isomer, unassigned) [Compound 294]	< 1000				
< 100		< 5000	Cc1cc(-c2cc(Cl)ccc2OCCn2c(C)nc3c(c2=O)CC(N(C)C2CC2)CC3)c2scc(C(=O)NS(C)(=O)=O)c2n1 (single isomer, unassigned) [Compound 303]		< 1000			
< 100	5000 to 20000		Cc1cc(-c2cc(Cl)ccc2OCCn2c(C)nc3c(c2=O)CC(N(CC(F)(F)F)C2CCC2)CC3)c2scc(C(=O)O)c2n1 (stereo not drawn) [Compound 83]	1000 to 5000				
< 100	< 5000		Cc1cc(-c2cc(Cl)ccc2OCCn2c(C)nc3c(c2=O)CC(N(C)C2CC2)CC3)c2scc(C(=O)NS(=O)(=O)c3ccccn3)c2n1 (single isomer, unassigned) [Compound 286]	< 1000				

SMILES	IC50 [1] [nM]	IC50 ([3]; Homo sapiens, COLO 205, 72 h) [nM]	IC50 [3] [nM]	IC50 [2, 4] [nM]	IC50 [2, 5] [nM]	IC50 ([2]; Homo sapiens, Flp-In-293, 24 h, read-out: DLA 205 IC50, dual luciferase assay, Flp-In-293 reporter cells, 24 hours, Fluc/Rluc ratio) [nM]	IC50 ([3]; Homo sapiens) [nM]	IC50 ([2]; read-out: DLA 205 IC50, dual luciferase assay, Flp-In-293 reporter cells, 24 hours, Fluc/Rluc ratio) [nM]
Cc1cc(-c2cc(Cl)ccc2OCCn2c(C)nc3c(c2=O)CC(N2CCN(C)CC2)CC3)c2scc(C(=O)O)c2n1 (stereo not drawn) [Compound 10]	< 100					1000 to 5000	5000 to 20000	
COC1CCc2nc(C)n(CCOc3ccc(Cl)cc3-c3cc(C)nc4c(C(=O)O)csc34)c(=O)c2C1 (single isomer, unassigned) [Compound 6]	100 to 500						5000 to 20000	1000 to 5000
